This note sets out measurements from patent publication US8778925B2, “Pyridine and pyrimidine based compounds as Wnt signaling pathway inhibitors for the treatment of cancer” (Cancer Research Technology Ltd., priority 2008, dated 2014).

The subject of the first data set is Wnt pathway. The experiment in a line: Luciferase reporter cell based assay (ER-DSH HEK293 cells). The settings on record: Homo sapiens, TCF-dependent transcription induced by estrogen (2 μM), reporter activity at 24 hours, read-out: IC50 in Luciferase reporter assay (ER-DSH HEK293 cells) assay described in Example 92. On the procedure:
Inhibitory activity of the Wnt pathway was assessed using a luciferase reporter cell based assay. A luciferase reporter cell line was developed in HEK293 cells, which contained an estrogen receptor-DSH (ER-DSH) construct and a TCF-luciferase-IRES-GFP construct.
A high-throughput assay was performed by inducing TCF-dependent transcription in the ER-DSH HEK293 cell line by the addition of estrogen (2 μM) resulting in at least a 14-fold increase in reporter activity measured at 24 hours. […]
On to `CNC(=O)C1CCN(c2c(Cl)cncc2Cl)CC1` [Example E1, 1-(3,5-dichloropyridin-4-yl)-N-methylpiperidine-4-carboxamide], for which the half-inhibitory concentration (IC50) is 12600 nM.

As to `CN(C)C(=O)C1CCN(c2c(Cl)cncc2Cl)CC1` [Example E2, 1-(3,5-dichloropyridin-4-yl)-N,N-dimethylpiperidine-4-carboxamide], the IC50 is 30000 nM.

As for `COc1ccc(-c2cncc(Cl)c2N2CCC(C(N)=O)CC2)cc1OC` [Example E4, 1-(3-chloro-5-(3,4-dimethoxyphenyl)pyridin-4-yl)piperidine-4-carboxamide], the IC50 turned out to be 170 nM.

Consider `CC(=O)N1CCN(c2c(Cl)cncc2Cl)CC1` [Example E9, 1-(4-(3,5-dichloropyridin-4-yl)piperazin-1-yl)ethanone], for which the IC50 stood at 12100 nM.

On to `NC(=O)C1CCN(c2ccncc2Cl)CC1` [Example E12, 1-(3-chloropyridin-4-yl)piperidine-4-carboxamide], for which the IC50 was 22900 nM.

Take `NCCNC(=O)C1CCN(c2c(Cl)cncc2Cl)CC1` [Example E13, N-(2-aminoethyl)-1-(3,5-dichloropyridin-4-yl)piperidine-4-carboxamide]: the IC50 was 7000 nM.

As for `NC(=O)C1CCN(c2c(Cl)cncc2Cl)C1` (stereo not shown) [Example E21, 1-(3,5-dichloropyridin-4-yl)pyrrolidine-3-carboxamide], the concentration for half-maximal inhibition (IC50) worked out at 760 nM.

Regarding `NC(=O)C1CCN(c2c(Br)cncc2Br)CC1` [Example E27, 1-(3,5-dibromopyridin-4-yl)piperidine-4-carboxamide], the half-maximal inhibitory concentration (IC50) stood at 210 nM.

Turning to `NC(=O)C1CCN(c2ncncc2Br)CC1` [Example E29, 1-(5-bromopyrimidin-4-yl)piperidine-4-carboxamide], the half-inhibitory concentration (IC50) turned out to be 16200 nM.

With `NC(=O)C1CCN(c2ncncc2-c2ccccc2)CC1` [Example E33, 1-(5-phenylpyrimidin-4-yl)piperidine-4-carboxamide], the IC50 amounted to 5000 nM.

In the case of `Clc1cncc(Cl)c1N1CCC(c2ncco2)CC1` [Example E35, 2-(1-(3,5-dichloropyridin-4-yl)piperidin-4-yl)oxazole], the IC50 came out at 7660 nM.

Regarding `COc1ccc(-c2cnccc2N2CCC(C(N)=O)CC2)cc1` [Example E37, 1-(3-(4-methoxyphenyl)pyridin-4-yl)piperidine-4-carboxamide], the 50% inhibitory concentration (IC50) is 1640 nM.

`COc1ccc(-c2cncc(Cl)c2N2CCC(C(N)=O)CC2)cc1` [Example E43, 1-(3-chloro-5-(4-methoxyphenyl)pyridin-4-yl)piperidine-4-carboxamide]: the IC50 came to 32 nM.

In the case of `Cc1nn(C)cc1-c1cncc(Cl)c1N1CCC(C(N)=O)CC1` [Example E47, 1-(3-chloro-5-(1,3-dimethyl-1H-pyrazol-4-yl)pyridin-4-yl)piperidine-4-carboxamide], the IC50 came to 440 nM.

On to `NC(=O)C1CCN(c2c(Cl)cncc2-c2ccc(F)cc2)CC1` [Example E50, 1-(3-chloro-5-(4-fluorophenyl)pyridin-4-yl)piperidine-4-carboxamide], for which the IC50 is 110 nM.

For `O=C1NCCC12CCN(c1c(Cl)cncc1Cl)CC2` [Example E59, 8-(3,5-dichloropyridin-4-yl)-2,8-diazaspiro[4.5]decan-1-one], the IC50 stood at 3430 nM.

Regarding `O=C1NCCC12CCN(c1c(Cl)cncc1-c1ccccc1)CC2` [Example E60, 8-(3-chloro-5-phenylpyridin-4-yl)-2,8-diazaspiro[4.5]decan-1-one], the IC50 worked out at 33 nM.

With `NC(=O)C1CCN(c2c(Cl)cncc2-c2ccncc2)CC1` [Example E65, 1-(5-chloro-3,4′-bipyridin-4-yl)piperidine-4-carboxamide], the half-inhibitory concentration (IC50) amounted to 440 nM.

For the molecule `NC(=O)C1CCN(c2ccncc2-c2ccccc2)CC1` [Example E68, 1-(3-phenylpyridin-4-yl)piperidine-4-carboxamide], the concentration for half-maximal inhibition (IC50) came to 1150 nM.

Take `COc1ccc(-c2cncc(Cl)c2N2CCC(C(N)=O)C2)cc1` (stereo not shown) [Example E74, 1-(3-chloro-5-(4-methoxyphenyl)pyridin-4-yl)pyrrolidine-3-carboxamide]: the half-maximal inhibitory concentration (IC50) worked out at 260 nM.

Take `COc1ccc(-c2cncnc2N2CCC(C(N)=O)CC2)cc1` [Example E85, 1-(5-(4-methoxyphenyl)pyrimidin-4-yl)piperidine-4-carboxamide]: the IC50 is 1580 nM.

On to `N#CC1CCN(c2c(Cl)cncc2-c2ccccc2)CC1` [Example E86, 1-(3-chloro-5-phenylpyridin-4-yl)piperidine-4-carbonitrile], for which the IC50 worked out at 90 nM.

In the case of `O=C(O)C1CCN(c2c(Cl)cncc2-c2ccccc2)CC1` [Example E87, 1-(3-chloro-5-phenylpyridin-4-yl)piperidine-4-carboxylic acid], the IC50 amounted to 740 nM.

Test system in the next data set: not given
Assay: not given
Settings: not given
In turn, `NC(=O)C1CCN(c2ncncc2Cl)CC1` returned a melting point of 201 to 202 °C.

Molecule `Cc1cncnc1N1CCC(C(N)=O)CC1` showed a melting point of 182 to 184 °C.

`O=C(c1ccccc1)N1CCN(c2c(Cl)cncc2Cl)CC1` yielded a melting point of 132 to 134 °C.

With `O=C(NCCNc1c(Cl)cncc1Cl)C1CCN(c2c(Cl)cncc2Cl)CC1` [Example E5, 1-(3,5-dichloropyridin-4-yl)-N-(2-(3,5-dichloropyridin-4-ylamino)ethyl)piperidine-4-carboxamide], the melting point was in the range of 157 to 159 °C.

Take `CC(=O)N1CCN(c2c(Cl)cncc2Cl)CC1` [Example E9, 1-(4-(3,5-dichloropyridin-4-yl)piperazin-1-yl)ethanone]: the melting point was 144 to 146 °C.

Molecule `O=C(NCCNCC1CCCCC1)C1CCN(c2c(Cl)cncc2Cl)CC1` [Example E16, N-(2-(cyclohexylmethylamino)ethyl)-1-(3,5-dichloropyridin-4-yl)piperidine-4-carboxamide] showed a melting point of 174 to 177 °C.

Consider `O=C(NCCN(Cc1ccccc1)Cc1ccccc1)C1CCN(c2c(Cl)cncc2Cl)CC1` [Example E17, N-(2-(dibenzylamino)ethyl)-1-(3,5-dichloropyridin-4-yl)piperidine-4-carboxamide], for which the melting point was 147 to 149 °C.

Regarding `O=C(NCCN(CC1CCCCC1)CC1CCCCC1)C1CCN(c2c(Cl)cncc2Cl)CC1` [Example E18, N-(2-(bis(cyclohexylmethyl)amino)ethyl)-1-(3,5-dichloropyridin-4-yl)piperidine-4-carboxamide], the melting point lay in the range of 236 to 238 °C.

As for `O=C(NCCNC(=O)C1CCN(c2c(Cl)cncc2Cl)CC1)c1ccccc1` [Example E19, N-(2-benzamidoethyl)-1-(3,5-dichloropyridin-4-yl)piperidine-4-carboxamide], the melting point was in the range of 209 to 211 °C.

Molecule `O=C(C1CCN(c2c(Cl)cncc2Cl)CC1)N1CCNCC1` [Example E20, (1-(3,5-dichloropyridin-4-yl)piperidin-4-yl)(piperazin-1-yl)methanone] displayed a melting point of 256 to 258 °C.

`NC(=O)C1CCN(c2c(Cl)cncc2Cl)C1` (stereo not shown) [Example E21, 1-(3,5-dichloropyridin-4-yl)pyrrolidine-3-carboxamide] gave a melting point of 161 to 163 °C.

For `N#CC1CCN(c2c(Br)cncc2Br)C1` (stereo not shown) [Example E23, 1-(3,5-dibromopyridin-4-yl)pyrrolidine-3-carbonitrile], the melting point lay in the range of 159 to 161 °C.

For `NC(=O)C1CCN(c2ncncc2Br)CC1` [Example E29, 1-(5-bromopyrimidin-4-yl)piperidine-4-carboxamide], the melting point is 188 to 190 °C.

For `NC(=O)C1CCN(c2c(Br)cncc2-c2ccccc2)CC1` [Example E39, 1-(3-bromo-5-phenylpyridin-4-yl)piperidine-4-carboxamide], the melting point fell in the range of 220 to 222 °C.
